Experimental data taken from article PMC12587390, “Metabolite Identification Data in Drug Discovery, Part 1: Data Generation and Trend Analysis” (Molecular Pharmaceutics, 2025).
Values after ≈ are worked out from the molar mass of the structure shown.

Experiments:
human hepatocytes [1] = test: Metabolic stability in human hepatocytes (HH CLint); format: in vitro ADME; settings: 37 °C, 2 h
Protocol: Metabolic stability in human hepatocytes (HH CLint) was measured by incubating the cells with the test compound at 37 °C for 2 h. An aliquot of the mixture was taken at typically nine defined time points, and the metabolic reaction was stopped by adding ACN. The samples were centrifuged, and the supernatant was analyzed via LC-MS/MS. Intrinsic clearance (CLint) was calculated from the disappearance rate of the parent compound. ,

human hepatocytes [2] = test: Metabolite identification in human hepatocyte incubations; format: in vitro ADME; settings: 4 μM
Protocol: (§1) Cryopreserved, pooled primary human, dog, and rat hepatocytes were obtained from BioIVT (previously Celsis IVT). L-15 Leibovitz buffer was placed in a water bath to reach 37 °C. Cryopreserved hepatocytes were transferred from a −150 °C freezer on dry ice and immediately immersed in a preheated water bath kept at 37 °C for thawing. When only a small ice crystal could be seen, the content was emptied into a 50 mL falcon tube filled with warm buffer (maximum four vials/falcon tube). The suspension was centrifuged at room temperature for 3 min at 50 g. The supernatant was removed, the pellet was resuspended in a small volume of buffer, and the falcon tube was refilled with buffer, followed by another centrifugation to wash away any remaining storage buffer. Thereafter, the supernatant was removed, and the pellet was dissolved in a small volume of buffer and diluted to a concentration of about 3–5 million cells/mL. After counting the cells using a Casy cell counter, the suspension was diluted to 1 million viable cells/mL and kept at room temperature until use. The viability cutoff was 80%.
(§2) An aliquot of 245 μL of hepatocyte suspension was added to a round-bottomed 96-deep-well plate using a manual multipipette. The deep-well plate was preincubated for 15 min at 37 °C and 13 Hz. Substrate solutions of the assay compounds were prepared by the robot in a 96-well plate as follows: 4 μL of 10 mM DMSO stock solution, followed by the addition of 96 μL of ACN:water (1:1, v:v) and mixing by shaking. 50 μL from each well were transferred to and combined in a new plate, resulting in 100 μL per well and a dilution of 1:1.
(§3) The reaction was started by the addition of 5 μL of 200 μM substrate solution to the preheated hepatocyte suspension, resulting in a final substrate concentration of 4 μM (0.04% DMSO, <0.5% ACN). The incubation was continued at 37 °C and 13 Hz. At each time point (0, 40, and 120 min), a 50 μL sample was taken out and quenched in 200 μL of cold ACN:methanol (1:1, v:v), and the stopped plates were centrifuged for 20 min (set at 4 °C and 4000 g). The supernatant was diluted by taking 50 μL and mixing it with 100 μL of water. Incubations of the positive controls, albendazole and dextromethorphan, were performed in parallel as described above.
(§4) Structural characterization of metabolites and metabolite profiling were performed using the Waters Acquity ultraperformance liquid chromatography (UPLC) system fitted to a Waters High-Resolution Mass Spectrometer (MS) (Xevo G2-S, Synapt G2-Si, or a Synapt XS MS). The Waters MS systems, equipped with an electrospray ionization (ESI) source, were operated in positive-ion sensitivity mode over a mass range m/z 50–1200 and in negative-ion sensitivity mode over a mass range m/z of 50–1200.
(§5) The reversed-phase gradient elution was performed on an Acquity U(H)-PLC BEH C18 column (2.1 × 100 mm, 1.7 μm, Waters) set at 45 °C. The mobile phases consisted of 0.1% FA in water (A) and ACN (B). […] The injection volume was 2 μL. The MS settings were optimized for the respective MS instrument. […] A scan time of 0.1 s was used, and data were acquired in centroid mode. Collision energy was set to “off” for the low-energy function, whereas in the high-energy MSe functions, the collision energies were typically ramped from 15 to 35 V in the trap cell, with constant collision energies of 20 V in their transfer cells. Cone voltage was set to 25 V for both low- and high-energy functions. For dedicated MS/MS, the m/z of the molecular ion was selected in the quadrupole, and the mass range for fragmentation analysis was typically set between 50 and 1200. The collision energies were either the same as those stated above for MSe data generation or optimized for a specific metabolite.

physchem [3] = settings: pH 7.4
Protocol: (§9) LogD was measured using the traditional shake-flask method, with up to ten compounds pooled together. The compounds were dissolved in 10 mM sodium phosphate buffer adjusted to pH 7.4 and an octanol phase (both phases were mixed for 2 h at room temperature). The concentrations in both phases were analyzed by liquid chromatography and quantitative tandem mass spectrometry (LC-MS/MS), and distribution coefficients were determined.

physchem [4] = settings: 25 °C, pH 7.4, aqueous buffer, thermodynamic from solid
Protocol: (§10) Solubility was measured as the thermodynamic solubility using a shake-flask approach. Here, DMSO was evaporated from the compound stock solution as the first step. The “dried” compounds were then placed into 10 mM sodium phosphate buffer, adjusted to pH 7.4, and equilibrated at 25 °C for 24 h. The samples were centrifuged, and the solution was analyzed by LC-MS/MS to determine the amount of compound in solution.

[5] = LogD, shake-flask method (octanol / buffer pH 7.4); settings: octanol/10 mM sodium phosphate buffer
Protocol: as §9

[6] = Thermodynamic solubility, shake-flask; settings: 10 mM sodium phosphate buffer, 25 °C, pH 7.4, aqueous buffer, thermodynamic from solid
Protocol: as §10

[7] = MetID on in vivo rat plasma samples; parameters: species or system rat (Han Wistar); settings: after Cmpd 28; sampled at 4 h
Protocol: (§6) The workup procedure could vary somewhat depending on the compound and dose, but the general procedure was as follows: Two volumes of ACN/methanol (1:1, v:v) were added to the plasma samples and vortex-mixed to precipitate the proteins. Thereafter, the samples were centrifuged for 10 min (at 10,000 g and 4 °C), and the supernatants were diluted with one volume of water. The urine samples were diluted with one volume of ACN/methanol (1:1, v:v) and centrifuged for 10 min (at 10,000 g and 4 °C), followed by a 1:1 dilution with water.
as §4
(§7) The reversed-phase gradient elution was performed on an Acquity U(H)-PLC BEH C18 column (2.1 × 100 mm, 1.7 μm, Waters) set at 45 °C. The mobile phases consisted of 0.1% FA in water (A) and ACN (B). […] The injection volume was 2 μL. The MS settings were optimized for the respective MS instrument. […] A scan time of 0.1 s was used, and data were acquired in centroid mode. Collision energy was set to “off” for the low-energy function, whereas in the high-energy MSe functions, the collision energies were typically ramped from 15 to 35 V in the trap cell, with constant collision energies of 20 V in their transfer cells. Cone voltage was set to 25 V for both low- and high-energy functions. For dedicated MS/MS, the m/z of the molecular ion was selected in the quadrupole, and the mass range for fragmentation analysis was typically set between 50 and 1200. The collision energies were either the same as those stated above for MSe data generation or optimized for a specific metabolite. Tune parameters for all MS analyses consisted of a capillary energy of 0.5 kV, sampling cone energy of 40 V, source temperature of 150 °C, desolvation temperature of 550 °C, cone gas flow of 0 L/h, desolvation gas flow of 1200 L/h, and nebulizer pressure of 6.5 bar.
(§8) Metabolite identification was conducted by processing the generated data using the MetaboLynx XS browser (Waters), MassMetaSite and the web interface ONIRO (Mass Analytica). […] Accurate masses of metabolites were determined from the protonated molecules in the positive ESI time-of-flight MS (ESI–TOF–MS) mode and from the deprotonated molecules in the negative ESI–TOF–MS mode. […] For those metabolites where no MS/MS data could be acquired, identification was based on the accurate mass of the molecular ion and the fragmentation seen in the MSe spectrum. Relative amounts of detected metabolites were calculated as % of the total MS area by dividing the MS peak area for the metabolite (or parent compound) by the combined MS peak area for the parent compound and all identified metabolites.

rat hepatocytes = test: Metabolite identification in rat hepatocyte incubations; format: in vitro ADME; settings: Cmpd 28 incubated for 120 min, 4 μM
Protocol: as §1, §2
as §3, with “The supernatant was diluted by taking 50 μL and mixing it with 100 μL of water. Incubations of the positive controls, albendazole and dextromethorphan, were performed in parallel as described above.” left out

dog hepatocytes = test: Metabolite identification in dog hepatocyte incubations; format: in vitro ADME; settings: Cmpd 28 incubated for 120 min, 4 μM
Protocol: as §1, §2, §3, §4, §5

[8] = MetID on in vivo dog samples (plasma, urine); parameters: species or system dog (beagles); settings: after Cmpd 28; sampled at 3 h and 30 min
Protocol: as §6, §4, §7, §8

Structure (SMILES)	HH CLint (human hepatocytes [1]) [μL/min/1E6]	Metabolites / metabolic pathways identified (human hepatocytes [2])	logD (physchem [3])	solubility (physchem [4]) [µM]	logD at 2 h [5]	solubility at 24 h [6] [µM]	% of the total MS area, Rat Plasma (Female) [7]	% of the total MS area, Rat Plasma (Male) [7]	% of the total MS area, Rat Hepatocytes (Mixed gender) (rat hepatocytes)	% of the total MS area, Dog Hepatocytes (Mixed gender) (dog hepatocytes) [%]	% of the total MS area, Dog Plasma (Female) [8] [%]
COc1cc(NC(=O)C2CCCCC2C(=O)c2ccc(-c3cc[nH]n3)cc2)ncn1 (stereo not shown) [Cmpd 17, COc1cc(NC(=O)[C@@H]2CCCC[C@H]2C(=O)c2ccc(-c3cc[nH]n3)cc2)ncn1]	22	ketone reduction, aliphatic hydroxylations, N-glucuronidation, amide hydrolysis, and combinations thereof	3.9	22 (≈ 8.92 µg/mL)	–	–	–	–	–	–	–
Cn1ncc(NC(=O)C2CCCCC2C(=O)c2ccc(-c3cc[nH]n3)cc2)c1C(N)=O (stereo not shown) [Cmpd 18, Cn1ncc(NC(=O)[C@@H]2CCCC[C@H]2C(=O)c2ccc(-c3cc[nH]n3)cc2)c1C(N)=O]	4	the only metabolite identified was the alcohol formed after the reduction of a ketone	–	–	2	564 (≈ 237 µg/mL)	–	–	–	–	–
Cn1ncc(NC(=O)C2CCCCC2C(=O)c2ccc(-c3cc[nH]n3)cc2)c1C(F)(F)F (stereo not shown) [Cmpd 25, Cn1ncc(NC(=O)[C@@H]2CCCC[C@H]2C(=O)c2ccc(-c3cc[nH]n3)cc2)c1C(F)(F)F]	7	amide hydrolysis was not detected	3.6	80 (≈ 35.6 µg/mL)	–	–	–	–	–	–	–
Cn1cc(NC(=O)C2CCCCC2C(=O)c2ccc(-c3cc[nH]n3)cc2)c(C(F)F)n1 (stereo not shown) [Cmpd 27, Cn1cc(NC(=O)[C@@H]2CCCC[C@H]2C(=O)c2ccc(-c3cc[nH]n3)cc2)c(C(F)F)n1]	9	amide hydrolysis was not detected	–	–	3	99 (≈ 42.3 µg/mL)	–	–	–	–	–
Cc1cc(-c2ccc(C(=O)[C@@H]3CCCC[C@H]3C(=O)O)cc2)n[nH]1 [Cmpd 28 M1]	–	–	–	–	–	–	18%	17%	no detection	4	12
Cc1cc(-c2ccc(C(=O)C3CCCCC3C(=O)OC3OC(C(=O)O)C(O)C(O)C3O)cc2)n[nH]1 (stereo not shown) [Cmpd 28 M2]	–	–	–	–	–	–	1%	0.5%	no detection	4	40
Cc1nn(C)cc1NC(=O)[C@@H]1CCCC[C@H]1C(=O)c1ccc(-c2cc(CO)[nH]n2)cc1 [Cmpd 28 M4]	–	–	–	–	–	–	not seen	not seen	3%	2	1
